Converted amounts (≈) assume the structure as drawn.
What follows are compounds tested on Mycobacterium bovis BCG strain TMC1019 (ATCC35737) (assay: microbe, parasite or virus in culture). Settings: Mycobacterium tuberculosis variant bovis BCG, 24 h, read-out: M. bovis ATCC35737 (ug/mL).
Type: cell-based
For `C[C@]1(CN2CCc3oc(-c4ccc(F)cc4)cc3C2)Cn2cc([N+](=O)[O-])nc2O1` [Compound 64, (S)-2-(4-Fluorophenyl)-5-((2-methyl-6-nitro-2,3-dihydroimidazo[2,1-b]oxazol-2-yl)methyl)-4,5,6,7-tetrahydrofuro[3,2-c]pyridine], the MIC was under 1 µg/mL.
`C[C@]1(CN2CCc3nc(-c4ccc(Cl)cc4F)ccc3C2)Cn2cc([N+](=O)[O-])nc2O1` [Compound 23, (S)-2-((2-(4-Chloro-2-fluorophenyl)-7,8-dihydro-1,6-naphthyridin-6(5H)-yl)methyl)-2-methyl-6-nitro-2,3-dihydroimidazo[2,1-b]oxazole] gave an MIC of under 1 µg/mL.
`C[C@]1(CN2CCc3nc(-c4cccc(F)c4F)ccc3C2)Cn2cc([N+](=O)[O-])nc2O1` [Compound 16, (S)-2-((2-(2,3-Difluorophenyl)-7,8-dihydro-1,6-naphthyridin-6(5H)-yl)methyl)-2-methyl-6-nitro-2,3-dihydroimidazo[2,1-b]oxazole] gave an MIC of under 1 µg/mL.
`C[C@]1(CN2CCc3nc(-c4cc(Cl)ccc4F)ccc3C2)Cn2cc([N+](=O)[O-])nc2O1` [Compound 15, (S)-2-((2-(5-Chloro-2-fluorophenyl)-7,8-dihydro-1,6-naphthyridin-6(5H)-yl)methyl)-2-methyl-6-nitro-2,3-dihydroimidazo[2,1-b]oxazole] was tested, and the MIC was under 1 µg/mL.
For `C[C@]1(CN2CCc3nc(C4CC4)ccc3C2)Cn2cc([N+](=O)[O-])nc2O1` [Compound 26, (S)-2-((2-Cyclopropyl-7,8-dihydro-1,6-naphthyridin-6(5H)-yl)methyl)-2-methyl-6-nitro-2,3-dihydroimidazo[2,1-b]oxazole], the MIC was under 1 µg/mL.
Work on `C[C@]1(CN2Cc3nc(-c4cc(F)c(F)cc4F)sc3C2)Cn2cc([N+](=O)[O-])nc2O1` [Compound 83, (S)-2-Methyl-6-nitro-2-((2-(2,4,5-trifluorophenyl)-4H-pyrrolo[3,4-d]thiazol-5(6H)-yl)methyl)-2,3-dihydroimidazo[2,1-b]oxazole] yielded an MIC of under 1 µg/mL.
Work on `C[C@]1(CN2CCc3nc(-c4cccc(Cl)c4F)ccc3C2)Cn2cc([N+](=O)[O-])nc2O1` [Compound 19, (S)-2-((2-(3-Chloro-2-fluorophenyl)-7,8-dihydro-1,6-naphthyridin-6(5H)-yl)methyl)-2-methyl-6-nitro-2,3-dihydroimidazo[2,1-b]oxazole] yielded an MIC of under 1 µg/mL.
`C[C@]1(Cn2cc3nc(-c4ccc(F)cc4)sc3c2)Cn2cc([N+](=O)[O-])nc2O1` [Compound 75, (S)-2-((2-(4-Fluorophenyl)-5H-pyrrolo[3,4-d]thiazol-5-yl)methyl)-2-methyl-6-nitro-2,3-dihydroimidazo[2,1-b]oxazole] was tested, and the MIC was 1 to 32 µg/mL (≈ 2.5 to 80.1 µM).
For `C[C@]1(CN2CCc3nc(-c4ccc(F)c(Cl)c4)ccc3C2)Cn2cc([N+](=O)[O-])nc2O1` [Compound 18, (S)-2-((2-(3-Chloro-4-fluorophenyl)-7,8-dihydro-1,6-naphthyridin-6(5H)-yl)methyl)-2-methyl-6-nitro-2,3-dihydroimidazo[2,1-b]oxazole], the MIC was under 1 µg/mL.
`C[C@]1(CN2Cc3nc(-c4ccc(OC(F)(F)F)cc4)sc3C2)Cn2cc([N+](=O)[O-])nc2O1` [Compound 73, (S)-2-Methyl-6-nitro-2-((2-(4-(trifluoromethoxy)phenyl)-4H-pyrrolo[3,4-d]thiazol-5(6H)-yl)methyl)-2,3-dihydroimidazo[2,1-b]oxazole] gave an MIC of 1 to 32 µg/mL (≈ 2.14 to 68.5 µM).
Work on `C[C@]1(CN2CCc3nc(-c4cc(F)cc(F)c4)ncc3C2)Cn2cc([N+](=O)[O-])nc2O1` [Compound 48, (S)-2-((2-(3,5-Difluorophenyl)-7,8-dihydropyrido[4,3-d]pyrimidin-6(5H)-yl)methyl)-2-methyl-6-nitro-2,3-dihydroimidazo[2,1-b]oxazole] yielded an MIC of under 1 µg/mL.
With `C[C@]1(CN2Cc3nc(-c4ccc(F)c(F)c4)oc3C2)Cn2cc([N+](=O)[O-])nc2O1` [Compound 90, (S)-2-(3,4-Difluorophenyl)-5-((2-methyl-6-nitro-2,3-dihydroimidazo[2,1-b]oxazol-2-yl)methyl)-5,6-dihydro-4H-pyrrolo[3,4-d]oxazole] the MIC was under 1 µg/mL.
With `C[C@]1(CN2CCc3nc(-c4ccsc4Cl)ccc3C2)Cn2cc([N+](=O)[O-])nc2O1` [Compound 53, (S)-2-((2-(2-Chlorothiophen-3-yl)-7,8-dihydro-1,6-naphthyridin-6(5H)-yl)methyl)-2-methyl-6-nitro-2,3-dihydroimidazo[2,1-b]oxazole] the MIC was under 1 µg/mL.
`C[C@]1(CN2CCc3nc(-c4cc(F)ccc4F)ccc3C2)Cn2cc([N+](=O)[O-])nc2O1` [Compound 17, (S)-2-((2-(2,5-Difluorophenyl)-7,8-dihydro-1,6-naphthyridin-6(5H)-yl)methyl)-2-methyl-6-nitro-2,3-dihydroimidazo[2,1-b]oxazole] showed an MIC of under 1 µg/mL.
`C[C@]1(CN2CCc3nc(C4CCCCC4)ccc3C2)Cn2cc([N+](=O)[O-])nc2O1` [Compound 59, (S)-2-((2-Cyclohexyl-7,8-dihydro-1,6-naphthyridin-6(5H)-yl)methyl)-2-methyl-6-nitro-2,3-dihydroimidazo[2,1-b]oxazole] gave an MIC of under 1 µg/mL.
In the case of `C[C@]1(CN2CCc3nc(N4CCCCC4)ccc3C2)Cn2cc([N+](=O)[O-])nc2O1` [Compound 28, (S)-2-Methyl-6-nitro-2-((2-(piperidin-1-yl)-7,8-dihydro-1,6-naphthyridin-6(5H)-yl)methyl)-2,3-dihydroimidazo[2,1-b]oxazole], the MIC is reported as under 1 µg/mL.
In the case of `C[C@]1(CN2CCc3nc(-c4ccc(OC(F)(F)F)c(F)c4)ccc3C2)Cn2cc([N+](=O)[O-])nc2O1` [Compound 11, (S)-2-((2-(3-Fluoro-4-(trifluoromethoxy)phenyl)-7,8-dihydro-1,6-naphthyridin-6(5H)-yl)methyl)-2-methyl-6-nitro-2,3-dihydroimidazo[2,1-b]oxazole], the MIC is reported as 1 to 32 µg/mL (≈ 2.03 to 64.9 µM).
In the case of `C[C@]1(CN2Cc3nc(-c4cc(F)c(F)cc4F)oc3C2)Cn2cc([N+](=O)[O-])nc2O1` [Compound 94, (S)-5-((2-Methyl-6-nitro-2,3-dihydroimidazo[2,1-b]oxazol-2-yl)methyl)-2-(2,4,5-trifluorophenyl)-5,6-dihydro-4H-pyrrolo[3,4-d]oxazole], the MIC is reported as under 1 µg/mL.
Work on `C[C@]1(CN2CCc3nc(-c4cc(F)cc(Cl)c4)ccc3C2)Cn2cc([N+](=O)[O-])nc2O1` [Compound 21, (S)-2-((2-(3-Chloro-5-fluorophenyl)-7,8-dihydro-1,6-naphthyridin-6(5H)-yl)methyl)-2-methyl-6-nitro-2,3-dihydroimidazo[2,1-b]oxazole] yielded an MIC of under 1 µg/mL.
For `C[C@]1(CN2CCc3nc(Nc4ccc(F)cc4)ccc3C2)Cn2cc([N+](=O)[O-])nc2O1` [Compound 33, (S)—N-(4-Fluorophenyl)-6-((2-methyl-6-nitro-2,3-dihydroimidazo[2,1-b]oxazol-2-yl)methyl)-5,6,7,8-tetrahydro-1,6-naphthyridin-2-amine], the MIC was under 1 µg/mL.
For `C[C@]1(CN2CCc3nc(-c4cc(F)ccc4Cl)ccc3C2)Cn2cc([N+](=O)[O-])nc2O1` [Compound 22, (S)-2-((2-(2-Chloro-5-fluorophenyl)-7,8-dihydro-1,6-naphthyridin-6(5H)-yl)methyl)-2-methyl-6-nitro-2,3-dihydroimidazo[2,1-b]oxazole], the MIC was under 1 µg/mL.

Source: patent publication US10227362B2 (priority 2015, dated 2019)
